Measurements as given in patent publication US9029359B2, “Heteroaryl Btk inhibitors” (Biogen Idec MA, Inc., priority 2009, dated 2015).

Target: T1, BTK (Homo sapiens, UniProt Q06187)
T1 construct: purchased Upstate 14-552
Test: In vitro BTK kinase assay: BTK-POLYGAT-LS ASSAY
Format: biochemical
Details: ATP 10 uM
Summary of the method: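 BTK phosphorylation of polyGAT (100 nM final) with ATP at 10 μM final, 10 mM Tris-HCl pH 7.5 kinase buffer, quenched by EDTA after 30 min. Potency given as IC50.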

T1 sequence (Q06187 whole entry): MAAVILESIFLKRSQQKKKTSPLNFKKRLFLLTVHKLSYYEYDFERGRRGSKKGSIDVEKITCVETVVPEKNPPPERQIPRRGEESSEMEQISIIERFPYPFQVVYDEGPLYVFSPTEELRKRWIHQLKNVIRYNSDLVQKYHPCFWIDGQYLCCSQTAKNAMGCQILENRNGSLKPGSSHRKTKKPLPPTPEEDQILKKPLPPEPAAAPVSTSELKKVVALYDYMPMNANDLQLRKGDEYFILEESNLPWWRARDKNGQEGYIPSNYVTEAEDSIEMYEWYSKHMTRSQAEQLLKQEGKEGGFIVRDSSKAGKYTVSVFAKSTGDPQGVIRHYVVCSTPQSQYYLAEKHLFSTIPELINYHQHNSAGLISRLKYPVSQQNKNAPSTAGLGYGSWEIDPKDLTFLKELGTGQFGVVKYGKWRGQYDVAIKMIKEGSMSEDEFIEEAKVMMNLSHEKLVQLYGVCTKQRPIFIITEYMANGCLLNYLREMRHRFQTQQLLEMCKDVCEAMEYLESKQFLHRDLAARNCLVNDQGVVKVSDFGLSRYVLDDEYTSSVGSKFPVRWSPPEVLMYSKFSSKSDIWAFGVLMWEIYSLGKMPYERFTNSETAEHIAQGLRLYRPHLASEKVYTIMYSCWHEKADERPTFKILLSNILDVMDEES

| Structure (SMILES) | IC50 |
| --- | --- |
| CN1CCN(S(=O)(=O)c2ccccc2NCC(=O)N[C@@H]2CCCN(c3ncnc4[nH]ccc34)C2)CC1 [Example 377] | 1000 to 10000 nM |
| O=C([C@H](Nc1cc(F)cc(Cl)c1)C1CC1)N1CCCCC12CCCN(c1ncnc3[nH]ccc13)C2 (some centres unmarked) [Example 379] | 1000 to 10000 nM |
| O=C(CNc1ccccc1-n1cccn1)N[C@@H]1CCCN(c2ncnc3[nH]ccc23)C1 [Example 381] | 1000 to 10000 nM |
| O=C(CNc1cc(Cl)cc(OC(F)(F)F)c1)N[C@@H]1CCCN(c2ncnc3[nH]ccc23)C1 [Example 383] | < 100 nM |
| Cc1ccc(F)c(NCC(=O)N[C@@H]2CCCN(c3ncnc4[nH]ccc34)C2)c1 [Example 386] | 100 to 999 nM |
| O=C(N[C@@H]1CCCN(c2ncnc3[nH]ccc23)C1)C(Nc1cc(F)cc(Cl)c1)C1COC1 (some centres unmarked) [Example 387] | 1000 to 10000 nM |
| O=C(O)Cc1cccc(NCC(=O)N[C@@H]2CCCN(c3ncnc4[nH]ccc34)C2)c1 [Example 389] | 1000 to 10000 nM |
| O=C(CNc1cccc(-c2nnco2)c1)N[C@@H]1CCCN(c2ncnc3[nH]ccc23)C1 [Example 390] | 1000 to 10000 nM |
| O=C(N[C@@H]1CCCN(c2ncnc3[nH]cc(F)c23)C1)[C@H](Nc1cc(Cl)cc(Cl)c1)C1CC1 [Example 392] | 1000 to 10000 nM |
| O=C(CNc1cccc(CO)c1)N[C@@H]1CCCN(c2ncnc3[nH]ccc23)C1 [Example 394] | 1000 to 10000 nM |
| O=C(CNc1cccc(-n2cncn2)c1)N[C@@H]1CCCN(c2ncnc3[nH]ccc23)C1 [Example 395] | 1000 to 10000 nM |
| O=C(CNc1cccc(-c2cc[nH]n2)c1)N[C@@H]1CCCN(c2ncnc3[nH]ccc23)C1 [Example 396] | 1000 to 10000 nM |
| CC(O)c1cccc(NCC(=O)N[C@@H]2CCCN(c3ncnc4[nH]ccc34)C2)c1 (some centres unmarked) [Example 397] | 1000 to 10000 nM |
| Cc1c(O)cccc1NCC(=O)N[C@@H]1CCCN(c2ncnc3[nH]ccc23)C1 [Example 398] | 1000 to 10000 nM |
| O=C(CNc1cccc2ncccc12)N[C@@H]1CCCN(c2ncnc3[nH]ccc23)C1 [Example 405] | 1000 to 10000 nM |
| O=C(CNc1ccc2[nH]ncc2c1)N[C@@H]1CCCN(c2ncnc3[nH]ccc23)C1 [Example 406] | 1000 to 10000 nM |
| Cc1cccc(Cl)c1NCC(=O)N[C@@H]1CCCN(c2ncnc3[nH]ccc23)C1 [Example 407] | 1000 to 10000 nM |
| C[C@@H](O)[C@@H](Nc1cc(F)cc(Cl)c1)C(=O)N[C@@H]1CCCN(c2ncnc3[nH]ccc23)C1 [Example 408] | 1000 to 10000 nM |
| N#Cc1c(F)cccc1NCC(=O)N[C@@H]1CCCN(c2ncnc3[nH]ccc23)C1 [Example 409] | 1000 to 10000 nM |
| O=C(CNc1c(F)ccc(F)c1F)N[C@@H]1CCCN(c2ncnc3[nH]ccc23)C1 [Example 411] | 100 to 999 nM |
| N#Cc1ccc(NCC(=O)N[C@@H]2CCCN(c3ncnc4[nH]ccc34)C2)cc1 [Example 412] | 1000 to 10000 nM |
| CCOc1ccc(OCC)c(NCC(=O)N[C@@H]2CCCN(c3ncnc4[nH]ccc34)C2)c1 [Example 414] | 1000 to 10000 nM |
| O=C(CNc1ccc(Cl)cc1F)N[C@@H]1CCCN(c2ncnc3[nH]ccc23)C1 [Example 418] | 1000 to 10000 nM |

| Structure (SMILES) | IC50 |
| --- | --- |
| Cc1ccc(NCC(=O)N[C@@H]2CCCN(c3ncnc4[nH]ccc34)C2)c(F)c1 [Example 420] | 1000 to 10000 nM |
| Cc1cccc(C)c1NCC(=O)N[C@@H]1CCCN(c2ncnc3[nH]ccc23)C1 [Example 421] | 1000 to 10000 nM |
| O=C(CNc1cc(C(F)(F)F)ccc1N1CCCCC1)N[C@@H]1CCCN(c2ncnc3[nH]ccc23)C1 [Example 423] | 1000 to 10000 nM |
| O=C(O)CC[C@@H](Nc1ccccc1)C(=O)N[C@@H]1CCCN(c2ncnc3[nH]ccc23)C1 [Example 425] | 1000 to 10000 nM |
| Cc1ccc(NCC(=O)N[C@@H]2CCCN(c3ncnc4[nH]ccc34)C2)cc1 [Example 426] | 100 to 999 nM |
| O=C(CNc1cccc(N2CCCCC2)c1)N[C@@H]1CCCN(c2ncnc3[nH]ccc23)C1 [Example 429] | 1000 to 10000 nM |
| Cc1ccc(NCC(=O)N[C@@H]2CCCN(c3ncnc4[nH]ccc34)C2)c(Cl)c1 [Example 430] | 1000 to 10000 nM |
| O=C(CNC(Cc1ccccc1)c1ccccc1)N[C@@H]1CCCN(c2ncnc3[nH]ccc23)C1 (some centres unmarked) [Example 431] | 1000 to 10000 nM |
| N#Cc1ccccc1NCC(=O)N[C@@H]1CCCN(c2ncnc3[nH]ccc23)C1 [Example 433] | 1000 to 10000 nM |
| O=C(CNc1cccc(-c2cnco2)c1)N[C@@H]1CCCN(c2ncnc3[nH]ccc23)C1 [Example 435] | 1000 to 10000 nM |
| Cc1nccc(-c2cccc(NCC(=O)N[C@@H]3CCCN(c4ncnc5[nH]ccc45)C3)c2)n1 [Example 436] | 1000 to 10000 nM |
| O=C(CNc1cc(C(F)(F)F)ccc1F)N[C@@H]1CCCN(c2ncnc3[nH]ccc23)C1 [Example 437] | 1000 to 10000 nM |
| O=C(CNc1cccc(OC(F)(F)C(F)F)c1)N[C@@H]1CCCN(c2ncnc3[nH]ccc23)C1 [Example 441] | 100 to 999 nM |
| CC(C)c1ccc(NCC(=O)N[C@@H]2CCCN(c3ncnc4[nH]ccc34)C2)cc1 [Example 443] | 1000 to 10000 nM |
| O=C(CNc1ccc(F)c(F)c1F)N[C@@H]1CCCN(c2ncnc3[nH]ccc23)C1 [Example 445] | 100 to 999 nM |
| O=C(CNc1cc(F)ccc1F)N[C@@H]1CCCN(c2ncnc3[nH]ccc23)C1 [Example 446] | 100 to 999 nM |
| O=C(NC1CCCN(c2ncnc3[nH]ccc23)C1)[C@@H](CCCO)Nc1ccccc1 (some centres unmarked) [Example 447] | 1000 to 10000 nM |
| O=C(N[C@@H]1CCCN(c2ncnc3[nH]ccc23)C1)C(Nc1ccccc1)C(F)(F)F (some centres unmarked) [Example 449] | 1000 to 10000 nM |
| CS(=O)(=O)c1ccccc1NCC(=O)N[C@@H]1CCCN(c2ncnc3[nH]ccc23)C1 [Example 450] | 1000 to 10000 nM |
| COc1cccc(C)c1NCC(=O)N[C@@H]1CCCN(c2ncnc3[nH]ccc23)C1 [Example 452] | 1000 to 10000 nM |
| O=C(CNc1cc(F)c(F)cc1F)N[C@@H]1CCCN(c2ncnc3[nH]ccc23)C1 [Example 453] | 100 to 999 nM |
| COCCOc1ccc(C(F)(F)F)cc1NCC(=O)N[C@@H]1CCCN(c2ncnc3[nH]ccc23)C1 [Example 455] | 100 to 999 nM |
| CNS(=O)(=O)c1ccccc1NCC(=O)N[C@@H]1CCCN(c2ncnc3[nH]ccc23)C1 [Example 457] | 1000 to 10000 nM |

Results, then the compound that gave them:

| IC50 | Structure (SMILES) |
| --- | --- |
| 100 to 999 nM | CN(C)S(=O)(=O)c1ccccc1NCC(=O)N[C@@H]1CCCN(c2ncnc3[nH]ncc23)C1 [Example 375] |
| 100 to 999 nM | CCC[C@@H](Nc1ccccc1C(C)C)C(=O)N[C@@H]1CCCN(c2ncnc3[nH]ncc23)C1 [Example 376] |
| 100 to 999 nM | CC1CN(S(=O)(=O)c2ccccc2NCC(=O)N[C@@H]2CCCN(c3ncnc4[nH]ccc34)C2)CC(C)O1 (some centres unmarked) [Example 378] |
| 100 to 999 nM | O=C(CNc1ccccc1OCC1CC1)N[C@@H]1CCCN(c2ncnc3[nH]ncc23)C1 [Example 380] |
| < 100 nM | Cc1cc(NCC(=O)N[C@@H]2CCCN(c3ncnc4[nH]ccc34)C2)cc(OC(F)(F)F)c1 [Example 382] |
| 100 to 999 nM | CC(C)(C)Oc1ccccc1NCC(=O)N[C@@H]1CCCN(c2ncnc3[nH]ccc23)C1 [Example 384] |
| < 100 nM | O=C(CNc1cc(F)cc(Cl)c1)N[C@@H]1CCCN(c2ncnc3[nH]ncc23)C1 [Example 385] |
| 1000 to 10000 nM | O=C(N[C@@H]1CCCN(c2ncnc3[nH]ccc23)C1)[C@@H](CC1CC1)Nc1cccc(Cl)c1 [Example 391] |
| 1000 to 10000 nM | O=C(N[C@@H]1CCCN(c2ncnc3[nH]ccc23)C1)[C@@H](CC1CC1)Nc1cc(F)cc(Cl)c1 [Example 393] |
| 1000 to 10000 nM | O=C(CNc1cccc(-c2nnn[nH]2)c1)N[C@@H]1CCCN(c2ncnc3[nH]ccc23)C1 [Example 400] |
| 1000 to 10000 nM | O=C(CNc1cccc(O)c1)N[C@@H]1CCCN(c2ncnc3[nH]ccc23)C1 [Example 401] |
| 1000 to 10000 nM | CCc1cccc(C)c1NCC(=O)N[C@@H]1CCCN(c2ncnc3[nH]ccc23)C1 [Example 403] |
| 100 to 999 nM | O=C(CNc1ccc(F)cc1)N[C@@H]1CCCN(c2ncnc3[nH]ccc23)C1 [Example 413] |
| 1000 to 10000 nM | Cc1cc(NCC(=O)N[C@@H]2CCCN(c3ncnc4[nH]ccc34)C2)ccc1Cl [Example 415] |
| 1000 to 10000 nM | CC(C)(C)c1ccccc1NCC(=O)N[C@@H]1CCCN(c2ncnc3[nH]ccc23)C1 [Example 416] |
| 100 to 999 nM | O=C(CNc1ccc(F)cc1Cl)N[C@@H]1CCCN(c2ncnc3[nH]ccc23)C1 [Example 417] |

| IC50 | Structure (SMILES) |
| --- | --- |
| 100 to 999 nM | Cc1cc(Cl)ccc1NCC(=O)N[C@@H]1CCCN(c2ncnc3[nH]ccc23)C1 [Example 419] |
| 100 to 999 nM | O=C(CNc1cccc(F)c1F)N[C@@H]1CCCN(c2ncnc3[nH]ccc23)C1 [Example 422] |
| 1000 to 10000 nM | O=C(N[C@@H]1CCCN(c2ncnc3[nH]ccc23)C1)[C@@H](CO)Nc1cc(F)cc(Cl)c1 [Example 424] |
| 1000 to 10000 nM | Cc1ccc(C)c(NCC(=O)N[C@@H]2CCCN(c3ncnc4[nH]ccc34)C2)c1 [Example 427] |
| 1000 to 10000 nM | Cc1cc(C)c(NCC(=O)N[C@@H]2CCCN(c3ncnc4[nH]ccc34)C2)c(C)c1 [Example 428] |
| 1000 to 10000 nM | O=C(CNc1cccc([N+](=O)[O-])c1)N[C@@H]1CCCN(c2ncnc3[nH]ccc23)C1 [Example 432] |
| 1000 to 10000 nM | NC(=O)c1cccc(NCC(=O)N[C@@H]2CCCN(c3ncnc4[nH]ccc34)C2)c1 [Example 434] |
| 1000 to 10000 nM | O=C(CNc1c(F)cc(F)cc1F)N[C@@H]1CCCN(c2ncnc3[nH]ccc23)C1 [Example 438] |
| 100 to 999 nM | CC(C)(C)c1cccc(NCC(=O)N[C@@H]2CCCN(c3ncnc4[nH]ccc34)C2)c1 [Example 440] |
| 1000 to 10000 nM | COc1ccc(C(C)(C)C)cc1NCC(=O)N[C@@H]1CCCN(c2ncnc3[nH]ccc23)C1 [Example 442] |
| 1000 to 10000 nM | O=C(CNc1ccccc1N1CCOCC1)N[C@@H]1CCCN(c2ncnc3[nH]ccc23)C1 [Example 444] |
| 1000 to 10000 nM | COc1ccc(C)c(NCC(=O)N[C@@H]2CCCN(c3ncnc4[nH]ccc34)C2)c1 [Example 451] |
| 1000 to 10000 nM | O=C(CNc1ccc(F)cc1F)N[C@@H]1CCCN(c2ncnc3[nH]ccc23)C1 [Example 454] |
| 1000 to 10000 nM | O=C(CNC1c2ccccc2-c2ccccc21)N[C@@H]1CCCN(c2ncnc3[nH]ccc23)C1 [Example 459] |
| 1000 to 10000 nM | O=C(CNC(c1ccccc1)c1ccccc1)N[C@@H]1CCCN(c2ncnc3[nH]ccc23)C1 [Example 460] |
